Source: paper PMC5605456 (Biochemistry, 2017)
Read-outs that look alike come from different tables or passages of the source.

How the values were obtained:
CmlI [1] = molecular target: T1, CmlI (Streptomyces venezuelae, UniProt F2RB83); test: stopped-flow at […] nm, hyperbolic fit of reciprocal relaxation times; format: binding
CmlI [2] = molecular target: T1, CmlI; test: as above; format: binding; remark: listed apart in the source

T1 sequence (F2RB83 whole entry): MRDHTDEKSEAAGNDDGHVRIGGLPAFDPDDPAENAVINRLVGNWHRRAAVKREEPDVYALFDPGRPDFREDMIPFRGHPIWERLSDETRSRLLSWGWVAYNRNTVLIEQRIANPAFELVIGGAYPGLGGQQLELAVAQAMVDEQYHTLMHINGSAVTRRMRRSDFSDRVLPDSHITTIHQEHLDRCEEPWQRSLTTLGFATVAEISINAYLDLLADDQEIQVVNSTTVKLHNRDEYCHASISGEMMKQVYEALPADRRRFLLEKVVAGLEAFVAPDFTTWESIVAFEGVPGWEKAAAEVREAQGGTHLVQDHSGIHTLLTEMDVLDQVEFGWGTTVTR

Kd (CmlI [1]) [mM]	Structure (SMILES)	Kd (CmlI [2]) [mM]
1.1 ± 0.05	O=C(N[C@H](CO)[C@H](O)c1ccc(NO)cc1)C(Cl)Cl [NH(OH)-CAM]	
	O=Nc1ccc([C@@H](O)[C@@H](CO)NC(=O)C(Cl)Cl)cc1 [NO-CAM]	8.6 ± 1
	Nc1ccc([C@@H](O)[C@@H](CO)NC(=O)C(Cl)Cl)cc1 [NH2-CAM, D-threo-1-(4-aminophenyl)-2-dichloroacetylamino-1,3-propanediol]	8.5 ± 1.5
